Assays:
Rattus norvegicus [1] = experiment: Antiinflammatory activity in Wistar rat assessed as inhibition of carrageenan-induced edema measured as increase in foot volume at 5 mg/kg, po administered 1 hr prior challenge measured 7 hrs after carrageenin injection (reference value: 178.8 %); format: functional; parameters: scale not given: the % may be the effect or the level left
Rattus norvegicus [2] = experiment: Antiinflammatory activity in Wistar rat assessed as inhibition of carrageenan-induced edema measured as increase in foot volume at 40 mg/kg, po administered 1 hr prior challenge measured 7 hrs after carrageenin injection (reference value: 178.8 %); format: functional; parameters: scale not given: the % may be the effect or the level left
Rattus norvegicus [3] = experiment: Antiinflammatory activity in Wistar rat assessed as inhibition of carrageenan-induced edema measured as increase in foot volume at 20 mg/kg, po administered 1 hr prior challenge measured 3 hrs after carrageenin injection (reference value: 187.6 %); format: functional; parameters: scale not given: the % may be the effect or the level left
Rattus norvegicus [4] = experiment: Antiinflammatory activity in Wistar rat assessed as inhibition of carrageenan-induced edema measured as increase in foot volume at 40 mg/kg, po administered 1 hr prior challenge measured 3 hrs after carrageenin injection (reference value: 187.6 %); format: functional; parameters: scale not given: the % may be the effect or the level left
Rattus norvegicus [5] = experiment: Antiinflammatory activity in Wistar rat assessed as inhibition of carrageenan-induced edema measured as increase in foot volume at 5 mg/kg, po administered 1 hr prior challenge measured 3 hrs after carrageenin injection (reference value: 187.6 %); format: functional; parameters: scale not given: the % may be the effect or the level left
Rattus norvegicus [6] = experiment: Antiinflammatory activity in Wistar rat assessed as inhibition of carrageenan-induced edema measured as increase in foot volume at 20 mg/kg, po administered 1 hr prior challenge measured 7 hrs after carrageenin injection (reference value: 178.8 %); format: functional; parameters: scale not given: the % may be the effect or the level left
[7] = Toxicity in ip dosed Swiss mouse; format: organism-based; conditions: in vivo

Row | SMILES | Activity (Rattus norvegicus [1]) [%] | Activity (Rattus norvegicus [2]) [%] | Activity (Rattus norvegicus [3]) [%] | Activity (Rattus norvegicus [4]) [%] | Activity (Rattus norvegicus [5]) [%] | Activity (Rattus norvegicus [6]) [%] | LD50 [7] [mg/kg]
1 | O=C(O)c1c(Cl)n(-c2ccccc2)c2ccccc12 | 151.4 | 201.1 | 149.4 | 173.8 | 159.8 | 130.1 | > 500
2 | O=C(O)Cc1c(Cl)n(-c2ccccc2)c2ccccc12 | 200.9 | 186.4 | 165.9 | 138 | 170.3 | 191.8 | > 500
3 | Cn1c(Cl)c(C(=O)O)c2ccccc21 | 133.3 | 150.7 | 146.5 | 148.3 | 145.1 | 133.8 | > 500
4 | O=C(O)c1c(Cl)[nH]c2ccccc12 | 143.4 | 132.1 | 161.7 | 156.4 | 153.1 | 153.5 | > 500
5 | COc1ccc2c(c1)c(CC(=O)O)c(C)n2C(=O)c1ccc(Cl)cc1 [INDOMETHACIN] | 106.8 | – | – | – | 98.5 | – | –
